According to patent publication US4798897A, “Isoquinoline derivatives” (Asahi Kasei Kogyo Kabushiki Kaisha, priority 1987, dated 1989):
Where two headings read alike, the source gives them in different places.

Legend:
bronchial tubes = test: Inhibition of histamine contraction of bronchial tubes (relaxation of bronchial tubes); conditions: guinea pig bronchial tube, 10 μM histamine, Table 16, read-out: ED50 (50% decrease of histamine contraction of bronchial tubes)
Description: 3. Inhibition of Histamine Contraction of Bronchial Tubes (Relaxation of Bronchial Tubes)
That is, a bronchial tube sample taken from a guinea pig was suspended in the 20-ml bath filled with Krebs-Henseleit nutrient solution and maintained at a temperature of 37° C. To the bath was added histamine so that the histamine concentration became 10 μM, causing the bronchial tube sample to contract. After the contraction became stable, the compounds of the present invention were added cumulatively to the bath to observe relaxation of the bronchial tube sample.
The effect of the compounds of the present invention on relaxation of bronchial tubes was examined according to the method as mentioned hereinbefore.

mesenteric artery = test: Relaxation of mesenteric artery (KCl-contracted); conditions: rabbit mesenteric artery contracted with 15 to 20 mM KCl, read-out: ED50 (concentration attaining 50% of complete relaxation)
Description: 1. Relaxation of Mesenteric Artery
A rabbit of Japanese local variety weighing about 3 kg was bled to death. Then, the abdomen of the rabbit was dissected to locate a mesenteric artery. […] Thus, shrinking and relaxation of the artery could be measured as a load on the transducer. To the organ bath, KCl was added so that the KCl concentration became 15 to 20 mM, causing the artery to shrink. Then, the compounds of the present invention were added to the organ bath to observe relaxation of the artery.
The effect of the compounds of the present invention on relaxation of mesenteric artery was examined according to the method as mentioned hereinbefore.

| Compound | EC50 (bronchial tubes; Cavia porcellus) [µM] | EC50 (mesenteric artery; Oryctolagus cuniculus) [µM] | EC50 (bronchial tubes) [µM] | EC50 (mesenteric artery) [µM] |
| --- | --- | --- | --- | --- |
| CCCCCCN(CC(C)N1CCCCC1)S(=O)(=O)c1cccc2cnccc12 (stereo not drawn) [Compound (48), N-hexyl-N-(2-piperidinopropyl)-5-isoquinolinesulfonamide] | 20 | 24 |  |  |
| CCCCCCN(CCN(C)C)S(=O)(=O)c1cccc2cnccc12 [Compound (43), N-(2-dimethylaminoethyl)-N-hexyl-5-isoquinolinesulfonamide] | 27 | 20 |  |  |
| CCCCCCN(CCCCCN)S(=O)(=O)c1cccc2cnccc12 [Compound (9), N-(5-aminopentyl)-N-hexyl-5-isoquinolinesulfonamide] | 15 | 9 |  |  |
| CCCCCCN(C(C)CNC(C)C)S(=O)(=O)c1cccc2cnccc12 (stereo not drawn) [(39), N-hexyl-N-(2-isopropylamino-1-methylethyl)-5-isoquinolinesulfonamide] | 20 | 11 |  |  |
| 1-(1-chloro-5-isoquinolinesulfonyl)-3-(N-hexyl-N-methylamino)piperidine [Compound (100)] |  |  | 22 | 22 |
| CCCN(CC(C)CN)S(=O)(=O)c1cccc2cnccc12 (stereo not drawn) [Compound (20), N-(3-amino-2-methylpropyl)-N-propyl-5-isoquinolinesulfonamide] | 15 | 17 |  |  |
| CNC1CCN(S(=O)(=O)c2cccc3cnccc23)C1 (stereo not drawn) [Compound (76), 1-(5-isoquinolinesulfonyl)-3-methylaminopyrrolidine] | 27 | 13 |  |  |
| CCCCCCN(C(C)CCCN)S(=O)(=O)c1cccc2cnccc12 (stereo not drawn) [Compound (21), N-(4-amino-1-methylbutyl)-N-hexyl-5-isoquinolinesulfonamide] | 17 | 19 |  |  |
| O=S(=O)(c1cccc2c(O)nccc12)N1CCCC(Nc2ccccc2)C1 (stereo not drawn) [Compound (87), 1-(1-hydroxy-5-isoquinolinesulfonyl)-3-phenylaminopiperidine] | 15 | 20 |  |  |
| O=S(=O)(c1cccc2cnccc12)N1CCCC(Nc2ccccc2)C1 (stereo not drawn) [Compound (68), 1-(5-isoquinolinesulfonyl)-3-phenylaminopiperidine] |  | 16 |  |  |
| CCCCCCN(C(C)CN(CC)CC)S(=O)(=O)c1cccc2cnccc12 (stereo not drawn) [Compound (49), N-(2-diethylamino-1-methylethyl)-N-hexyl-5-isoquinolinesulfonamide] | 15 |  |  |  |

More lines, main results first:

| EC50 (bronchial tubes; Cavia porcellus) [µM] | EC50 (mesenteric artery; Oryctolagus cuniculus) [µM] | Compound | EC50 (bronchial tubes) [µM] | EC50 (mesenteric artery) [µM] |
| --- | --- | --- | --- | --- |
| 11 | 5 | CCCCCCN(CCCCN)S(=O)(=O)c1cccc2cnccc12 [Compound (8), N-(4-aminobutyl)-N-hexyl-5-isoquinolinesulfonamide] |  |  |
| 8 | 5 | CCCNC1CCCN(S(=O)(=O)c2cccc3cnccc23)C1 (stereo not drawn) [Compound (66), 1-(5-isoquinolinesulfonyl)-3-propylaminopiperidine] |  |  |
| 13 | 16 | CCCCCCN(C(CN)CCCC)S(=O)(=O)c1cccc2cnccc12 (stereo not drawn) [Compound (19), N-(1-aminomethylpentyl)-N-hexyl-5-isoquinolinesulfonamide] |  |  |
| 13 | 13 | CCCN(C(CN)C(C)C)S(=O)(=O)c1cccc2cnccc12 (stereo not drawn) [Compound (18), N-(1-aminomethyl-2-methylpropyl)-N-propyl-5-isoquinolinesulfonamide] |  |  |
| 14 | 13 | CCCNC1CCN(S(=O)(=O)c2cccc3cnccc23)CC1 [Compound (54), 1-(5-isoquinolinesulfonyl)-4-propylaminopiperidine] |  |  |
| 8 | 11 | CCNCCN(CC)S(=O)(=O)c1cccc2cnccc12 [Compound (26), N-(2-ethylaminoethyl)-N-ethyl-5-isoquniolinesulfonamide] |  |  |
| 13 | 13 | CCCCCCNC1CCCN(S(=O)(=O)c2cccc3c(Cl)nccc23)C1 (stereo not drawn) [Compound (98), 1-(1-chloro-5-isoquinolinesulfonyl)-3-hexylaminopiperidine] |  |  |
| 14 | 12 | CCCNC1CCN(S(=O)(=O)c2cccc3c(O)nccc23)CC1 [Compound (81), 1-(1-hydroxy-5-isoquinolinesulfonyl)-4-propylaminopiperidine] |  |  |
